The record followed here is ChEMBL document CHEMBL1142811, “Design and syntheses of melanocortin subtype-4 receptor agonists. Part 2: discovery of the dihydropyridazinone motif” (Bioorg Med Chem Lett, 2005).

Assay [1] deals with T1, Melanocortin receptor 5 (Homo sapiens, UniProt P33032). The assay can be described thus: Inhibition of [125I]-NDP- alpha-MSH binding to human melanocortin 5 receptor.
Assay [2] addresses T2, Melanocortin receptor 4 (Homo sapiens, UniProt P32245). Nature of the assay: Effective concentration at human melanocortin 4 receptor in cAMP release assay. In kind it is functional.
In assay [3] the target is T1, Melanocortin receptor 5. The assay can be described thus: Effective concentration against human melanocortin 5 receptor in cAMP release assay. Format: functional.
Assay [4] deals with T2, Melanocortin receptor 4. Nature of the assay: Inhibition of [125I]-NDP- alpha-MSH binding to human melanocortin 4 receptor expressed in CHO cells. In kind it is cell-based.
Assay [5] addresses T3, Melanocortin receptor 3 (Homo sapiens, UniProt P41968). The assay can be described thus: Inhibition of [125I]-NDP- alpha-MSH binding to human melanocortin 3 receptor.
For assay [6], the target named is T2, Melanocortin receptor 4. The assay can be described thus: Inhibition of [125I]-NDP- alpha-MSH binding to human melanocortin 4 receptor.
Assay [7] deals with T4, Melanocyte-stimulating hormone receptor (Homo sapiens, UniProt Q01726). Nature of the assay: Inhibition of [125I]-NDP- alpha-MSH binding to human melanocortin 1 receptor.
Target sequence in this assay (Q01726 whole entry): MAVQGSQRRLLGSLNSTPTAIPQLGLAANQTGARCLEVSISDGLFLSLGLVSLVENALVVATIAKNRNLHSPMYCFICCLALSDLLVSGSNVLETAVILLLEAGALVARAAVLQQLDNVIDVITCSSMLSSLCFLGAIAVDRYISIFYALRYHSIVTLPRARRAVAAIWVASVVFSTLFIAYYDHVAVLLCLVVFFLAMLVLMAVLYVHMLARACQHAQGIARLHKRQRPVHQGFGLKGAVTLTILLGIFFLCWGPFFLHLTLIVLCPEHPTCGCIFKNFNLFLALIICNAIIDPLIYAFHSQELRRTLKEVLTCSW
For assay [8], the target named is T3, Melanocortin receptor 3. The assay can be described thus: Maximum percentage of cAMP accumulation compared to alpha-MSH at human melanocortin 3 receptor at 10 uM. Format: functional. Background: Cyclic AMP is a second messenger, typically raised through Gs and lowered through Gi signalling.
For assay [9], the target named is T2, Melanocortin receptor 4. Nature of the assay: Maximum percentage of cAMP accumulation relative to alpha-MSH at human melanocortin 4 receptor at 10 uM. In kind it is functional.
Assay [10] concerns the target T1, Melanocortin receptor 5. Nature of the assay: Maximum percentage of cAMP accumulation compared to alpha-MSH at human melanocortin 5 receptor at 10 uM. Format: functional.
Assay [11] deals with T1, Melanocortin receptor 5. Nature of the assay: Maximum percentage of cAMP accumulation compared to alpha-MSH at human melanocortin 5 receptor. In kind it is functional.
The target in assay [12] is T4, Melanocyte-stimulating hormone receptor. The settings on record: 10 uM.
Target sequence in this assay (Q01726 whole entry, looked up): as the sequence (Q01726 whole entry) above
Description: Maximum percentage of cAMP accumulation compared to alpha-MSH at human melanocortin 1 receptor at 10 uM
For assay [13], the target named is T2, Melanocortin receptor 4. Nature of the assay: Maximum percentage of cAMP accumulation compared to alpha-MSH at human melanocortin 4 receptor at 10 uM. In kind it is functional.
Assay [14] has as its target T4, Melanocyte-stimulating hormone receptor. The assay can be described thus: Effective concentration against human melanocortin 1 receptor in cAMP release assay. In kind it is functional.
Target sequence in this assay (Q01726 whole entry): as above
The target of assay [15] is T3, Melanocortin receptor 3. Nature of the assay: Effective concentration against human melanocortin 3 receptor in cAMP release assay. Format: functional.
Assay [16] concerns the target T1, Melanocortin receptor 5. The assay can be described thus: Inhibition of [125I]-NDP- alpha-MSH binding to human melanocortin 5 receptor expressed in CHO cells. Format: cell-based.
In assay [17] the target is T3, Melanocortin receptor 3. The assay can be described thus: Inhibition of [125I]-NDP- alpha-MSH binding to human melanocortin 3 receptor expressed in CHO cells. In kind it is cell-based.
Assay [18] addresses T3, Melanocortin receptor 3. Nature of the assay: Inhibition of [125I]-NDP- alpha-MSH binding to human melanocortin 3 receptor expressed in CHO cell at 4 uM. In kind it is cell-based.
Assay [19] concerns the target T3, Melanocortin receptor 3. Nature of the assay: Maximum percentage of cAMP accumulation compared to alpha-MSH at human melanocortin 3 receptor. In kind it is functional.

Where only a bound is given, the exact number is not on record here.

T3 sequence (P41968 whole entry): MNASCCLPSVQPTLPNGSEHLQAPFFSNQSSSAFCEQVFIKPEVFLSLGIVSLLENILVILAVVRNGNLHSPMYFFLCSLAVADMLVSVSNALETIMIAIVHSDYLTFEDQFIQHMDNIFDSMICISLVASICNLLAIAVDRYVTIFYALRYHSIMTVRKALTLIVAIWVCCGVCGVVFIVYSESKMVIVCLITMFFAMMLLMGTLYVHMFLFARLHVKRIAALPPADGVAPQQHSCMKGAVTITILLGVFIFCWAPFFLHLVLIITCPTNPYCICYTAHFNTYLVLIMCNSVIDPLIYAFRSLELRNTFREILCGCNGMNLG
T2 sequence (P32245 whole entry): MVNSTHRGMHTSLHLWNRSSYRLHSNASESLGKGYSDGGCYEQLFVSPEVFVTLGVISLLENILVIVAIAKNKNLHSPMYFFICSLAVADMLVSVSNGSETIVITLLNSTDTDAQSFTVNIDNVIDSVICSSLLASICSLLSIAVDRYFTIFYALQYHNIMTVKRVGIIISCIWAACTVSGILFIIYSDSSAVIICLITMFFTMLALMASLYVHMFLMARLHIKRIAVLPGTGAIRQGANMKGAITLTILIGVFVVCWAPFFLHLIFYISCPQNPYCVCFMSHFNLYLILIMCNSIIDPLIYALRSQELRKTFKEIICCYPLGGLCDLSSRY
T1 sequence (P33032 whole entry): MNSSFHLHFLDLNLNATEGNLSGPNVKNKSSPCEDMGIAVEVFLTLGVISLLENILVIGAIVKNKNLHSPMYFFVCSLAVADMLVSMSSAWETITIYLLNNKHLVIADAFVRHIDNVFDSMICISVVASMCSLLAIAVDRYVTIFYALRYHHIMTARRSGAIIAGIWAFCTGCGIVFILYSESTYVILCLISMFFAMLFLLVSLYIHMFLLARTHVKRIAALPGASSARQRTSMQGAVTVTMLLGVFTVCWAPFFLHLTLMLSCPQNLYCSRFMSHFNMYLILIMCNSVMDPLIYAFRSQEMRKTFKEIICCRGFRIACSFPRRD

In general, IC50 refers to the point on the concentration scale where inhibition reaches its midpoint. Read a high IC50 as weaker potency in that assay. One may read the EC50 as the midpoint of the concentration-response curve. A lower EC50 goes with an effect from little substance. For the molecule `COc1ccc(N2N=C(Sc3ccc(Cl)cc3)CC(CC[C@@H](C)NC(=O)[C@H]3CNCC[C@@H]3c3ccc(F)cc3)C2=O)cc1` (stereo in doubt; 26) [listing 1 of 2 here], the IC50 at Melanocortin receptor 5 [1] turned out to be 1100 nM; on Melanocortin receptor 4 [4], 1.5 nM; on Melanocortin receptor 3 [5], 420 nM; at Melanocortin receptor 4 [6], 1.5 nM; in [7] it was 230 nM. For the same molecule, the EC50 on Melanocortin receptor 4 [2] amounted to 40 nM; on Melanocortin receptor 5 [3], 2400 nM.

Take `COc1ccc(N2N=C(Sc3ccc(Cl)cc3)CC(CC[C@@H](C)NC(=O)C3CNC[C@@H]3c3ccc(F)cc3)C2=O)cc1` (single isomer, unassigned; 67) [listing 1 of 2 here]: the Max on Melanocortin receptor 3 [8] turned out to be 10%; at Melanocortin receptor 4 [9], 90%; at Melanocortin receptor 5 [10], 5%.

For the molecule `COc1ccc(N2N=C(Sc3ccc(Cl)cc3)CC(CC[C@@H](C)NC(=O)[C@H]3CNCC[C@@H]3c3ccc(F)cc3)C2=O)cc1` (stereo in doubt; 26) [listing 2 of 2 here], the Max at Melanocortin receptor 3 [8] amounted to 5%; on Melanocortin receptor 4 [9], 67%; at Melanocortin receptor 5 [11], 27%; in [12], 12%.

With `COc1ccc(-n2nc(Sc3ccc(Cl)cc3)cc(CC[C@@H](C)NC(=O)[C@H]3CNCC[C@@H]3c3ccc(C(F)(F)F)cc3)c2=O)cc1`, at Melanocortin receptor 4 [13], the Max came to 24%. The molecule also yielded an EC50 at Melanocortin receptor 4 [2] of more than 5000 nM. The same molecule registered an IC50 on Melanocortin receptor 4 [4] of 3.8 nM.

The molecule `COc1ccc(-n2nc(Sc3ccc(Cl)cc3)cc(CC[C@@H](C)NC(=O)[C@H]3CCNC[C@@H]3Cc3ccc(F)cc3)c2=O)cc1` yielded a Max on Melanocortin receptor 4 [13] of 62%. Besides, the EC50 at Melanocortin receptor 4 [2] worked out at 630 nM. On Melanocortin receptor 4 [4], this molecule gave an IC50 of 390 nM.

Regarding `COc1ccc(N2N=C(Sc3ccc(Cl)cc3)CC(CC[C@@H](C)NC(=O)[C@H]3CCNC[C@@H]3c3ccc(F)cc3)C2=O)cc1` (stereo in doubt; 63) [listing 1 of 2 here], the EC50 in assay [14] amounted to 220 nM; at Melanocortin receptor 4 [2], 30 nM; on Melanocortin receptor 3 [15], 1100 nM. Besides, the IC50 at Melanocortin receptor 5 [1] was found to be 3100 nM; on Melanocortin receptor 4 [4] it was 22 nM; on Melanocortin receptor 3 [5] it was 4700 nM; on Melanocortin receptor 4 [6], 22 nM; in assay [7], 1100 nM.

For `COc1ccc(-n2nc(Sc3ccc(Cl)cc3)cc(CC[C@@H](C)NC(=O)[C@H]3CNCC[C@@H]3c3ccc(F)cc3)c2=O)cc1`, the Max is 6% on Melanocortin receptor 3 [8], 71% on Melanocortin receptor 4 [9] and 7% on Melanocortin receptor 5 [10]. Also, the values for the IC50 on Melanocortin receptor 5 [16], at Melanocortin receptor 3 [17] and on Melanocortin receptor 4 [4] were 840 nM, 940 nM and 11 nM, respectively. Moreover, the EC50 on Melanocortin receptor 4 [2] came to 61 nM.

On to `COc1ccc(-n2nc(Sc3ccc(Cl)cc3)cc(CC[C@@H](C)NC(=O)[C@H]3CNCC[C@@H]3c3ccsc3)c2=O)cc1`, for which the Max on Melanocortin receptor 4 [13] is 82%. The molecule also displayed an EC50 at Melanocortin receptor 4 [2] of 490 nM. On Melanocortin receptor 4 [4], the IC50 was determined as 130 nM.

In general, inhibition refers to the drop in the measured response relative to a control, in per cent. The low end stands for a weak effect, the high end for a strong effect. In turn, `COc1ccc(-n2nc(Sc3ccc(Cl)cc3)cc(CC[C@@H](C)NC(=O)[C@H]3CCNC[C@@H]3c3ccc(F)cc3)c2=O)cc1` returned an inhibition on Melanocortin receptor 3 [18] of 40%. Moreover, the Max at Melanocortin receptor 3 [8] was determined as 45%; on Melanocortin receptor 4 [9], 101%; at Melanocortin receptor 5 [10], 1%. The half-maximal inhibitory concentration (IC50) on Melanocortin receptor 5 [16] was 1200 nM; at Melanocortin receptor 4 [4] it was 66 nM. The EC50 on Melanocortin receptor 4 [2] was determined as 110 nM.

`COc1ccc(N2N=C(Sc3ccc(Cl)cc3)CC(CC[C@@H](C)NC(=O)C3CNC[C@@H]3c3ccc(F)cc3)C2=O)cc1` (single isomer, unassigned; 67) [listing 2 of 2 here]: the EC50 in assay [14] came to 240 nM; on Melanocortin receptor 4 [2], 66 nM. In addition, the IC50 on Melanocortin receptor 5 [1] worked out at 690 nM; at Melanocortin receptor 4 [4], 18 nM; at Melanocortin receptor 3 [5], 1600 nM; in assay [7], 290 nM.

Turning to `COc1ccc(-n2nc(Sc3ccc(Cl)cc3)cc(CC[C@@H](C)NC(=O)[C@H]3CNC[C@@H]3c3ccc(F)cc3)c2=O)cc1`, the results for the Max on Melanocortin receptor 4 [9], at Melanocortin receptor 5 [10] and on Melanocortin receptor 3 [19] were 84%, 5% and 24%, respectively. Also, the 50% inhibitory concentration (IC50) was 1400 nM on Melanocortin receptor 5 [16], more than 3000 nM on Melanocortin receptor 3 [17] and 70 nM at Melanocortin receptor 4 [4]. Also, the EC50 at Melanocortin receptor 4 [2] came to 110 nM; at Melanocortin receptor 3 [15] it was 2400 nM.

For the molecule `COc1ccc(-n2nc(Sc3ccc(Cl)cc3)cc(CC[C@H](C)NC(=O)[C@@H]3CNCCN3c3ccc(F)cc3)c2=O)cc1`, at Melanocortin receptor 4 [13], the Max was 38%. The IC50 on Melanocortin receptor 4 [4] was found to be 1000 nM.

`COc1ccc(-n2nc(Sc3ccc(Cl)cc3)cc(CC[C@H](C)NC(=O)[C@H]3CNCCN3c3ccc(F)cc3)c2=O)cc1` yielded a Max at Melanocortin receptor 4 [13] of 9%. In addition, at Melanocortin receptor 4 [4], the IC50 stood at 1100 nM.

`COc1ccc(N2N=C(Sc3ccc(Cl)cc3)CC(CC[C@@H](C)NC(=O)[C@H]3CCNC[C@@H]3c3ccc(F)cc3)C2=O)cc1` (stereo in doubt; 63) [listing 2 of 2 here]: the figures for the Max on Melanocortin receptor 4 [9], on Melanocortin receptor 5 [10] and at Melanocortin receptor 3 [19] were 98%, 7% and 21%, respectively.

For `COc1ccc(-n2nc(Sc3ccc(Cl)cc3)cc(CC[C@@H](C)NC(=O)[C@H]3CNCC[C@@H]3c3cccc(C(F)(F)F)c3)c2=O)cc1`, on Melanocortin receptor 4 [13], the Max was determined as 40%. At Melanocortin receptor 4 [4], this molecule yielded an IC50 of 100 nM.

`COc1ccc(-n2nc(Sc3ccc(Cl)cc3)cc(CC[C@@H](C)NC(=O)[C@H]3CNCC[C@@H]3c3ccc(C)cc3)c2=O)cc1`: the Max at Melanocortin receptor 4 [13] is 47%. The molecule further displayed an EC50 on Melanocortin receptor 4 [2] of 1100 nM. The same molecule gave an IC50 at Melanocortin receptor 4 [4] of 4.7 nM.
